Entries after “also recorded” stand apart in the source; their conditions may differ. Read-outs that look alike come from different tables or passages of the source.
How the values were obtained:
[1] = system: phospholipase D in sweet corn kernel; experiment: Phospholipase D activity by release of radiolabelled choline, fractions not distinguished; format: biochemical, Zea mays; details: sweet corn kernel preparations, fraction not specified
Description: Protein Extraction. Sweet corn (Zea mays L. cv Peaches and Cream) was used for this study. The kernels were obtained locally from a grocery store and stored frozen at −20° C. until it was used for protein extraction. […] The fraction comprising the starch granules was removed by centrifuging the samples at 2500×g for 10 minutes. […] The supernatant from this step was centrifuged at 105,000×g to pellet the microsomal membranes. The supernatant comprising the cytosol was subjected to ammonium sulphate fractionation at 30 and 60% saturation. The precipitated protein was collected by centrifugation at 15000×g and redissolved in 10 mM Tris-HCl pH 7.0 and dialyzed overnight with the same buffer, also containing 0.1 mM DTT, with two changes of 2 L each. […] All steps of protein extraction procedure were carried out at 4° C.
Enzyme Assay. […] The basic assay mixture contained 0.1 M Tris-HCl (pH 7.5), 0.2 mM EGTA, membrane or cytosol protein (2.5 μg), and approximately 100,000 dpm of choline-labelled phosphatidylcholine in 0.1% (v/v) Triton-X 100 (0.01% final), to make a total volume of 1 ml. To study the regulation of PLD by alcohols, aldehydes and metal ions, the appropriate amounts of the reagent solutions were added to the basic reaction mixture. Similarly, citrate and Tris-HCl buffers were used to study the effect of pH on PLD activity. The reaction was terminated after 10 minutes by adding 100 μL of 4 N HCl followed by 1 mL of chloroform/methanol (2:1, v/v) and left overnight. The amount of [^3H]choline released during the reaction was determined by mixing a 0.5 ml aliquot of the aqueous phase directly into 5 ml of scintillation fluid (Ecolume, ICN) and determining the amount of radiolabel using a Beckman LS 6800 Scintillation counter (Beckman Instruments Inc.).
Protein Extraction: Sweet corn (Zea mays L. cv Peaches and Cream) was used for this study. The kernels were obtained locally from a grocery store and stored frozen at −20° C. until used. Frozen kernels were homogenized in 0.1 M Tris-HCl buffer at pH 7.5, containing 1 mM dithiothreitol, I mM phenylmethanesulfonylfluoride, 2 mM EDTA and 1 mM EGTA. The homogenate was filtered through four layers of cheese clothe. After removing the debris, the homogenate was subjected to differential centrifugation to separate mitochondria, microsomes and cytosol. The fraction comprising starch granules was removed by centrifuging the samples at 2500×g for 10 min. The resulting supernatant was subjected to centrifugation at 15000×g to pellet the mitochondrial membrane fraction. The supernatant from this step was centrifuged at 105,000×g to pellet the microsomal membranes. The supernatant was subjected to ammonium sulfate fractionation at 30 and 60% saturation to precipitate the cytosolic proteins. The precipitated proteins were pelleted by centrifugation at 15000×g and dissolved in 10 mM Tris HCI, pH 7.5, and dialyzed overnight in the same buffer also containing 0.1 mM DTT. Resuspended microsomal, mitochondrial membrane preparation and the cytosolic proteins were stored at −80° C. until used for phospholipase D assays.
Assay for Phospholipase D: Phospholipase D activity was determined by the liberation of choline from choline methyl labelled dipalmitoylphosphatidylcholine [L3-phosphatidyl (N-methyl-3H) choline 1,2-dipalmitoyl]. The basic assay mixture contained 0.1 M. Tris-HCl, pH 7.5, 0.2 mM EGTA, 1-2.5 ug of membrane or cytosolic protein (precipitated at 60% ammonium sulfate saturation) and 100,000 dpm of choline-labelled phosphatidylcholine in 0.1% Triton X-100 (final 0.01%), in a total volume of 1 ml. Hexanal and hexanol was added to the assay mixture and incubated for 5 min prior to the addition of substrate. The reaction was terminated after 10 min by the addition of 100 uL of 4N HCl, followed by 1 ml of chloroform: methanol (2:1 v/v) and left overnight.

[2] = system: cytosolic PLD of sweet corn kernel; experiment: Phospholipase D activity by release of radiolabelled choline, cytosolic fraction; format: biochemical, Zea mays
Description: (§1) Protein Extraction. Sweet corn (Zea mays L. cv Peaches and Cream) was used for this study. The kernels were obtained locally from a grocery store and stored frozen at −20° C. until it was used for protein extraction. Frozen kernels were homogenized in 0.1 m Tris-HCl buffer at pH 7.5 essentially as described by Pinhero et al. (1998), except that sucrose was not included in the homogenizing buffer. The mitochondrial, microsomal and the cytosolic fractions were collected by differential centrifugation (Pinhero et al., 1998). The fraction comprising the starch granules was removed by centrifuging the samples at 2500×g for 10 minutes. The resulting supernatant was subjected to centrifugation at 15,000×g to pellet the mitochondrial membrane fraction (Edwards and Gardestrom, 1987). The supernatant from this step was centrifuged at 105,000×g to pellet the microsomal membranes. The supernatant comprising the cytosol was subjected to ammonium sulphate fractionation at 30 and 60% saturation. The precipitated protein was collected by centrifugation at 15000×g and redissolved in 10 mM Tris-HCl pH 7.0 and dialyzed overnight with the same buffer, also containing 0.1 mM DTT, with two changes of 2 L each. Protein concentration was determined by the method of Bradford (1976) using bovine serum albumin as a standard. All steps of protein extraction procedure were carried out at 4° C.
(§2) Enzyme Assay. […] activity was determined as described by Pinhero et al. (1998) by measuring the release of radiolabelled choline from L3-phosphatidyl(N-methyl-^3H) choline,1,2-dipalmitoyl at 23° C. The basic assay mixture contained 0.1 M Tris-HCl (pH 7.5), 0.2 mM EGTA, membrane or cytosol protein (2.5 μg), and approximately 100,000 dpm of choline-labelled phosphatidylcholine in 0.1% (v/v) Triton-X 100 (0.01% final), to make a total volume of 1 ml. To study the regulation of PLD by alcohols, aldehydes and metal ions, the appropriate amounts of the reagent solutions were added to the basic reaction mixture. Similarly, citrate and Tris-HCl buffers were used to study the effect of pH on PLD activity. The reaction was terminated after 10 minutes by adding 100 μL of 4 N HCl followed by 1 mL of chloroform/methanol (2:1, v/v) and left overnight. The amount of [^3H]choline released during the reaction was determined by mixing a 0.5 ml aliquot of the aqueous phase directly into 5 ml of scintillation fluid (Ecolume, ICN) and determining the amount of radiolabel using a Beckman LS 6800 Scintillation counter (Beckman Instruments Inc.).

[3] = system: mitochondrial PLD of sweet corn kernel; experiment: Phospholipase D activity by release of radiolabelled choline, mitochondrial fraction; format: biochemical, Zea mays
Description: as §1, §2

[4] = system: microsomal PLD of sweet corn kernel; experiment: Phospholipase D activity by release of radiolabelled choline, microsomal fraction; format: biochemical, Zea mays
Description: as §1, §2

[5] = system: PLD in leaf and root tissues of maize seedlings; details: cited from earlier work
parsley leaves = experiment: Parsley leaf senescence, excised leaves incubated in the dark for fourteen days; details: increasing amounts in 2.5 ml water with 0.001% Tween-20, fourteen days in the dark
Description: Mature parsley leaves were excised and floated in water to randomize the leaves. After thorough washing 10 leaflets were incubated in petri plates lined with Whatman #1 filter paper and containing 2.5 ml of water containing various amounts of hexanal and 0.001% final Tween −20. Controls with water alone and Tween −20 were also incubated. The petri plates were incubated in the dark for fourteen days. The leaves were removed, chopped to fine pieces, and portions used for protein and pigment analyses. For protein analysis, a known amount of leaf segments (usually 0.6-0.7 g) were ground with 0.1 N NaOH (1 ml). After removing the debris by centrifugation, protein was determined in aliquots, using the dye-binding method by Bradford, 1976. To measure the pigments, leaf segments were extracted with 5 ml of 95% ethanol overnight in the dark. The absorbance readings were measured at […] to estimate chlorophyll a, at 647 nm for chlorophyll b and at […] for carotenoid. The data presented are the mean of two independent estimations from two sets of leaves incubated separately.

phospholipase D = details: reported in plants; cited from earlier work
PLD = details: animal systems; cited from earlier work
[6] = acetaldehyde, concentration not stated (discussion)
[7] = 0.2 mM of added calcium (10 μM of free calcium)
[8] = maximal stimulation, at 0.5 mM of added calcium, 0.2 mM EGTA in assay
[9] = increasing alcohol in the assay mixture
[10] = alcohol added to the assay mixture
[11] = maximal stimulation, at 50 μM magnesium chloride

With [Cl-].[K+] [KCl, potassium chloride] the “effect on PLD activity” value [1] was “did not affect PLD activity substantially; also recorded: did not appear to have any major effects on PLD activity”, the “effect on cytosolic PLD activity” value ([2]; monovalent salt up to 5 mM) was “nearly similar activity with respect to their respective controls” and the “effect on mitochondrial PLD activity” value ([3]; monovalent salt up to 5 mM) was “nearly similar activity with respect to their respective controls”. The “effect on microsomal PLD activity” value ([4]; monovalent salt up to 5 mM) was “inhibited”.

For CC=O [acetaldehyde], the “inhibition of cytosolic PLD activity” value ([2]; 2% v/v acetaldehyde) was 80%, the “inhibition of cytosolic PLD activity” value [2, 6] was “over 75%” and the “inhibition of mitochondrial PLD activity” value ([3]; 2% v/v acetaldehyde) was 80%. The “inhibition of mitochondrial PLD activity” value [3, 6] was “over 75%”, the “inhibition of microsomal PLD activity” value ([4]; 2% v/v acetaldehyde) was 80% and the “inhibition of microsomal PLD activity” value [4, 6] was “over 75%”.

For [Ca+2] [calcium], the “effect on PLD activity” value [1] was “marginally stimulated”, the “stimulation of cytosolic PLD activity” value [2, 7] was ~40% and the “stimulation of cytosolic PLD activity” value [2, 8] was 40-50%. For the same compound, the “effect on mitochondrial PLD activity” value ([3]; 0.5 mM of added calcium, 0.2 mM EGTA in assay) was “marginal stimulation”, the “stimulation of microsomal PLD activity” value [4, 7] was ~40% and the “stimulation of microsomal PLD activity” value [4, 8] was 40-50%. For the same compound, the “effect on PLD activity” value [5] was “not stimulated”.

In the case of CCO [ethanol], the “effect on cytosolic PLD activity” value ([2]; ethanol levels above 0.5%) is reported as “inhibited”, the “effect on cytosolic PLD activity” value [2, 9] is reported as “marginal stimulation initially followed by a decline in activity” and the “effect on mitochondrial PLD activity” value [3, 10] is reported as “stimulation in the activity”. The “stimulation of mitochondrial PLD activity” value ([3]; maximal stimulation, at 0.25% ethanol (v/v)) was 100%, the “effect on microsomal PLD activity” value [4] was “stimulation in the activity” and the “stimulation of microsomal PLD activity” value [4] was 50%.

For CCCCCC=O [hexanal], the “effect on PLD activity” value [1] was “potent inhibition of PLD activity; also recorded: effective inhibitors of PLD activity”.

For CCCCCCO [hexanol], the “effect on PLD activity” value [1] was “potent inhibition of PLD activity; also recorded: effective inhibitors of PLD activity”, the “amount of chlorophyll in parsley leaves versus controls” value (parsley leaves) was “greater amounts of chlorophyll than controls” and the “senescence or aging of parsley leaves” value (parsley leaves) was “less senescence or aging has occurred”.

In the case of [Cl-].[Cl-].[Mg+2] [magnesium chloride], the “effect on PLD activity” value [1] is reported as “slightly higher than that of calcium ions”, the “stimulation of cytosolic PLD activity” value [2, 11] is reported as ~100% and the “stimulation of microsomal PLD activity” value [4, 11] is reported as ~100%. For the same compound, the “effect on PLD activity” value [5] was “not stimulated”.

For CCCO [propanol], the “effect on PLD activity” value [1] was “marginal”, the “effect on cytosolic PLD activity” value [2, 9] was “initial promotion of cytosolic activity followed by a decline” and the “effect on mitochondrial PLD activity” value [3, 10] was “only a marginal increase”. The “promotion in microsomal PLD activity” value ([4]; between 0.1 and 1% (v/v) propanol) was 20-25%.

With [Cl-].[Na+] [sodium chloride] the “effect on PLD activity” value [1] was “did not affect PLD activity substantially; also recorded: did not appear to have any major effects on PLD activity”, the “effect on cytosolic PLD activity” value ([2]; monovalent salt up to 5 mM) was “remained nearly the same” and the “effect on mitochondrial PLD activity” value ([3]; monovalent salt up to 5 mM) was “remained nearly the same”. For the same compound, the “effect on microsomal PLD activity” value ([4]; monovalent salt up to 5 mM) was “remained nearly the same”.

For Lysophosphatidylethanolamine, the “inhibition of phospholipase D” value (phospholipase D) is listed as “potent inhibitor of phospholipase D”.

In the case of hydroxy hexenal, the “effect on PLD” value (PLD) is given as “promoters of PLD”.

In the case of n-butanol, the “effect on PLD activity” value [1] is reported as “marginal”, the “effect on cytosolic PLD activity” value [2, 9] is reported as “decline in activity” and the “effect on mitochondrial PLD activity” value [3, 10] is reported as “decline in activity”. For the same compound, the “effect on microsomal PLD activity” value [4, 10] was “decline in activity”.

From US6514914B1, “Inhibition of phospholipase D” (priority 1999, dated 2003)
